Assay [1] relates to E. coli carrying blaADC37 encoded in pBC SK (−). Put plainly: Disk susceptibility assay. The conditions noted are these: 10 μg of BAI and 10 μg of ceftazidime per disk, zone size. It is filed as cell-based, Escherichia coli DH10B.
In assay [2] the test system is AB0057 A. baumannii spp. clinical strain. Put plainly: Disk susceptibility assay. The following applies: zone size. It is filed as cell-based.
For assay [3], the system named is E. coli carrying blaADC37 encoded in pBC SK (−). Put plainly: MIC broth microdilution with ceftazidime plus BATSI. It is filed as cell-based, Escherichia coli DH10B. The following applies: for MIC broth dilution: CAZ MIC with 10 μg/mL compound, CAZ varied from 0 to 128 μg/mL.
Assay [4] addresses T1, ADC-7 (Acinetobacter baumannii, UniProt Q6DRA1). The following applies: previously reported value for the lead compound; cited from earlier work.
Assay [5] deals with T1, ADC-7. Description: Competition kinetics with nitrocefin against ADC-7 β-lactamase. It is filed as biochemical.
In assay [6] the test system is E. coli AmpC. The conditions noted are these: class C enzyme lacking Arg340; cited from earlier work.
In assay [7] the target is Pseudomonas PDC-3. The following applies: class C enzyme lacking Arg340; cited from earlier work.
Setting [8] is: 10 μg of BAI and 10 μg of sulbactam per disk.

In general, Ki refers to the dissociation constant of the complex between target and ligand, obtained from inhibition or displacement. By MIC is commonly meant the least concentration at which growth counts as inhibited.

Read-outs that look alike come from different tables or passages of the source.

`O=C(Cc1cccs1)N[C@@H](Cn1cc(C(=O)O)nn1)B(O)O` [3a, (1R)-2-[4-carboxy-[1,2,3]triazol-1-yl]-1-(2-thienylace-tylamino)ethaneboronic acid]: the values for the disk assay in assay [1] and in assay [2] (setting [8]) were 26 mm and 16 mm, respectively. The MIC broth dilution in assay [3] is 1 µg/mL. The Ki in assay [4] was 44 nM.

Consider `O=C(Cc1cccs1)N[C@@H](Cn1cc(-c2nn[nH]n2)nn1)B(O)O` [3h, (1R)-2-[4-(2H-tetrazol-5-yl)-[1,2,3]triazol-1-yl]-1-(2-thienylacetylamino)ethaneboronic acid], for which the figures for the disk assay in assay [1] and in assay [2] (setting [8]) were 23 mm and 10 mm, respectively.

Regarding `O=C(Cc1cccs1)N[C@@H](Cn1cc(-c2cccc(-c3nn[nH]n3)c2)nn1)B(O)O` [3j, (1R)-2-[4-(3-(2H-tetrazol-5-yl)phenyl)-[1,2,3]triazol-1-yl]-1-(2-thienylacetylamino)ethaneboronate], the disk assay in assay [1] is 15 mm; in assay [2] (setting [8]), 6 mm. Moreover, the MIC broth dilution in assay [3] is 8 µg/mL.

With `O=C(Cc1cccs1)N[C@@H](Cn1cc(-c2cccc(C(=O)O)c2)nn1)B(O)O` [3c, (1R)-2-[4-(3-carboxyphenyl)-[1,2,3]triazol-1-yl]-1-(2-thienylacetylamino)ethaneboronic acid], the values for the disk assay in assay [1] and in assay [2] (setting [8]) were 24 mm and 15 mm, respectively. In assay [5], this compound returned a Ki of 46 ± 3 nM.

With `O=C(Cc1cccs1)N[C@@H](Cc1cccc(C(=O)O)c1)B(O)O` [EC04, reference compound], the Ki was 1 nM in assay [6] and 220 nM in assay [7]. Besides, the disk assay came to 21 mm in assay [1] and 11 mm in assay [2] (setting [8]). Moreover, in assay [3], the MIC broth dilution was found to be 2 µg/mL.

In the case of `CC1(C)[C@H](C(=O)O)N2C(=O)C[C@H]2S1(=O)=O` [SUL, sulbactam, reference compound], the disk assay result was “SUL 6 mm” in assay [2] (SUL alone, 10 μg) and 6 mm in assay [2] (SUL alone, 10 μg, listed as sulbactam).

For the compound `O=C(Cc1cccs1)N[C@H](B(O)O)c1cccc(C(=O)O)c1` [SM23, reference compound], the Ki is 1 nM in assay [6] and 4 nM in assay [7]. Besides, the disk assay stood at 25 mm in assay [1] and 12 mm in assay [2] (setting [8]). Besides, the MIC broth dilution in assay [3] was determined as 1 µg/mL.

Regarding `CC(C)(O/N=C(\C(=O)N[C@@H]1C(=O)N2C(C(=O)[O-])=C(C[n+]3ccccc3)CS[C@H]12)c1csc(N)n1)C(=O)O` [CAZ, ceftazidime, reference compound], in assay [3] (Escherichia coli, read-out: MIC broth dilution), the MIC stood at 32 µg/mL.

For “(1R)-2-(4-idroxycarbamoyl-[1,2,3]triazol-1-yl)-1-(2-thienylacetylamino)ethaneboronic acid [3e]”, the disk assay was 16 mm in assay [1] and 8 mm in assay [2] (setting [8]). For the same compound, the MIC broth dilution in assay [3] is 2 µg/mL.

As to “(1R)-2-(4-carboxamido-[1,2,3]triazol-1-yl)-1-(2-thienylacetylamino)ethaneboronate [3d]”, the results for the disk assay in assay [1] and in assay [2] (setting [8]) were 18 mm and 10 mm, respectively. In addition, in assay [3], the MIC broth dilution is 4 µg/mL.

Take `O=C(O)Cc1cn(C[C@H](NC(=O)Cc2cccs2)B(O)O)nn1` [3b, (1R)-2-(4-carboxymethyl-[1,2,3]triazol-1-yl)-(2-thienylace-tylamino)ethaneboronic acid]: the disk assay in assay [1] is given as 18 mm; in assay [2] (setting [8]), 10 mm. Further, the MIC broth dilution in assay [3] is 2 µg/mL. For the same compound, the “less activity relative to 3a” value in assay [5] (Ki compared with 3a) is reported as 3 fold.
